Results reported in paper PMC3057018, “Inhibition of Recombinant D-Amino Acid Oxidase from Trigonopsis variabilis by Salts” (Enzyme Research, 2011).

What was measured:
[1] = biological target: T1, TvDAAO (recombinant His-tagged D-amino acid oxidase from Trigonopsis variabilis) (Trigonopsis variabilis, UniProt Q99042); assay: DNPH end-point assay of pyruvate at […] nm; type: biochemical; design: gene DAO1; N-terminal hexahistidine tag, expressed in E. coli mainly as apoenzyme, metal-chelate purified, holoenzyme reconstituted with FAD; settings: FAD added, potassium phosphate pH 8.0, 30 °C
T1 sequence (Q99042 whole entry): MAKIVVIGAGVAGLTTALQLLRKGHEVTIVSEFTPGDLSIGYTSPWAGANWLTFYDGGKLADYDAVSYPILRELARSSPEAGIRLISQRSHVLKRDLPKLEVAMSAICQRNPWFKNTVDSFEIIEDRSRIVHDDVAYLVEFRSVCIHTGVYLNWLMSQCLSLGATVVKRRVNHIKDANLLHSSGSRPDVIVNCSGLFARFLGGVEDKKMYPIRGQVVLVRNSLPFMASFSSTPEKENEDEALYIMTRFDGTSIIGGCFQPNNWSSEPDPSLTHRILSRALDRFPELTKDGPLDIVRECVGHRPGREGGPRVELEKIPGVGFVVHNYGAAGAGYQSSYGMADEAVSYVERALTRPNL

[2] = biological target: T1, TvDAAO (recombinant His-tagged D-amino acid oxidase from Trigonopsis variabilis); assay: intrinsic tryptophan fluorescence (excitation […] nm) of reconstituted holoenzyme with NaCl; type: binding; design: gene DAO1; N-terminal hexahistidine tag, expressed in E. coli mainly as apoenzyme, metal-chelate purified, holoenzyme reconstituted with FAD; settings: 25 °C; FAD dissociation by NaCl followed indirectly; holoenzyme reconstituted with 5-fold FAD; noncovalent
[3] = biological target: T1, TvDAAO (recombinant His-tagged D-amino acid oxidase from Trigonopsis variabilis); assay: biochemical; design: gene DAO1

Compound: C[C@@H](N)C(=O)O [D-alanine]
- DNPH end-point assay of pyruvate at 450 nm [1]: measured the release of α-ketoacid from D-alanine during the reaction

Compound: Cc1cc2nc3c(=O)[nH]c(=O)nc-3n(C[C@H](O)[C@H](O)[C@H](O)COP(=O)(O)OP(=O)(O)OC[C@H]3O[C@@H](n4cnc5c(N)ncnc54)[C@H](O)[C@@H]3O)c2cc1C [FAD]
- intrinsic tryptophan fluorescence (excitation 295 nm) of reconstituted holoenzym [2]: Such an effect may be related to the loss of cofactor FAD

Compound: Cl [NaCl]
- Ki [3]: 85 mM
